One assay deals with EL4 cells. The experiment in a line: Cytotoxic T-cell activity, four hour chromium release assay. The following applies: for target cell lysis: at about 10 μg/ml, cytotoxic T-cells, E:T 20:1, four hour incubation; for chromium release from target cells: at concentrations higher than about 10 μg/ml, compared with spontaneous release without compound. The class given is cell-based, mouse. The text has this:
Cytotoxic T-cell Activity: To assay the effect of metalloprotoporphyrins on cytotoxic T-cell activity, CBA to B6 effectors were generated following a five day culture of 3×10^6 CBA spleen cells with 3×10^6 mitomycin-treated B6 spleen cells in wells of a 24-well plate (Nunclone, Delta, Nunc, Denmark) in R-10 medium. Effector cells were then harvested and washed. (H2^b), a mouse lymphoma induced in C57BL/6N was used as target cells. EL4 cells were routinely subcultured once every three days. They were then collected, washed, and labeled with 0.1 mCi of sodium chromate-51 in 200 μl for one hour at 37° C. Effector (E) and target (t) cells were added into V-shaped tissue culture plates (Nunc, Denmark) at E:T of 20:1. Metalloprotoporphyrins were diluted to the working concentrations with PBS and added at the beginning of the four hour incubation period. For the determination of maximal release, 1% triton X-100 was added to separate wells. Plates were centrifuged for three minutes to increase cellular contact before the four hour incubation period. After incubation 75 μl supernatant from each well was collected and the amount of^51Cr released was counted using a TopCount scintillation counter. The degree of cell lysis was calculated using the formula below: […]

Assay [1] concerns C57B1/6 heart allografts in CBA recipients. The experiment in a line: Heterotopic heart transplantation, allograft survival. The class given is in vivo, mouse. The following applies: control 7.8±1.1. Here is the method: FIG. 2 is a graph showing the prolongation of heart allograft survival following metalloprotoporphyrin therapy. CBA recipients of C57B1/6 heart allografts were either untreated or treated as follows: Zn-protoporphyrin group (n=4); Zn-protoporphyrin was administered at 10 mg/kg/day on day −1 before transplantation and on days 1–9 post transplantation. Co-protoporphyrin group (n=4); Co-protoporphyrin was administered at 20 mg/kg/day on days 0–5 post-transplantation; Zn-protoporphyrin pretreatment group (n=3); heart donors were treated one day before transplantation with 50 mg/kg Zn-protoporphyrin.
Heterotopic Heart Transplantation: Abdominal heterotopic heart transplantation was performed as previously described by Ono and Lindsey, J. Thorac. Cardiovasc. Surg. 7:225–229 (1969) using […] donors and CBA recipients. Metalloporphyrin was administered intraperitoneally using various protocols. Heart allograft survival was monitored daily by direct palpation, and rejection was defined as termination of palpable cardiac contractility. Results are expressed as percentage graft survival at a given postoperative period. Statistical analysis was performed with the Mann-Whitney test.

The subject of assay [2] is fatty liver isografts from obese Zucker donors in lean Zucker recipients. The experiment in a line: Syngeneic orthotopic liver transplant (OLT) model, survival and sGOT. In kind it is in vivo, rat. As to the method:
Syngeneic Orthotopic Liver Transplant (OLT) model: Syngeneic liver transplants were performed using fatty livers that were harvested from obese Zucker rats and stored for 4 hours at 4° C. in University of Wisconsin (UW) solution before being transplanted into lean Zucker recipients. OLTs were performed with revascularization without hepatic artery reconstruction. There were 2 treatment groups. In the first group, obese Zucker rats (n=10) received CoPP (5 mg/kg intraperitoneally) 24 hours before the procurement. Group 2 donors (n=11) were treated with Ad-HO-1 (2.4×10^9 pfu intravenously) 24 hours before harvest. OLT recipients were followed for survival and serum glutamic-oxaloacetic trans-aminase (sGOT) levels. Separate groups of rats (n=2/group) were sacrificed at 1, 7, 14, and 100 days after OLT, and liver samples were collected for H&E/immunohistology staining and Western blot analysis.

Assay [3] concerns liver isografts. The experiment in a line: OLT liver histology, modified Suzuki's criteria. The class given is in vivo, rat. The conditions noted are these: day 1 after transplant; graded 0 to 4; control 3.33±0.58. The text has this: Histology and immunohistochemistry: Liver specimens were fixed in a 10% buffered formalin solution and embedded in paraffin. Sections were made at 4 μm and stained with H&E. The previously published Suzuki's criteria (Suzuki et al., Transplantation 55:1265–1272 (1993)), […] were modified to evaluate the histologic severity of I/R injury in the OLT model. In this classification sinusoidal congestion, hepatocyte necrosis, and ballooning degeneration are graded from 0 to 4. No necrosis, congestion or centrilobular ballooning is given a score of 0, whereas severe congestion and ballooning degeneration as well as greater than 60% lobular necrosis is given a value of 4.

In assay [4] the test system is liver isografts. The experiment in a line: OLT immunohistochemistry for mononuclear cell (MNC) infiltration. The class given is in vivo, rat. As to the method: OLTs were examined serially by immunohistochemistry for mononuclear cell (MNC) infiltration. Briefly, liver tissue was embedded in Tissue Tek OCT compound (Miles Inc., Elkhart, Ind., USA), snap frozen in liquid nitrogen, and stored at −70° C. Cryostat sections (5 μm) were fixed in acetone, and then endogenous peroxidase activity was inhibited with 0.3% H2O2 in PBS. Normal heat-inactivated donkey serum (10%) was used for blocking. Appropriate primary mouse Ab against rat T cells (R73) and monocytes/macrophages (ED1) (Harlan Bioproducts for Science, Indianapolis, Ind., USA) were added at optimal dilutions. Bound primary Ab was detected using biotinylated donkey anti-mouse IgG and streptavidin peroxidase-conjugated complexes (DAKO Corp., Carpinteria, Calif., USA). The control sections were performed by replacing the primary Ab with either dilution buffer or normal mouse serum. The peroxidase reaction was developed with 3,3-diaminobenzidine tetrahydrochloride (Sigma Chemical Co., St. Louis, Mo., USA). The sections were evaluated blindly by counting the labeled cells in triplicates in 10 high-power fields.

The subject of assay [5] is HO-1. The experiment in a line: Western analysis of HO-1 expression in the OLT model. The conditions noted are these: day 1, 7, 14 and 100 after transplant; densitometer; untreated 0.09–0.85 AU. The class given is in vivo, rat. As to the method:
(§1) Western blots: Protein was extracted from liver tissue samples with PBSTDS buffer (50 mM Tris, 150 mM NaCl, 0.1% SDS, 1% sodium deoxycholate, and 1% Triton X-100, pH 7.2). Proteins (30 μg/sample) in SDS-loading buffer (50 mM Tris, pH 7.6, 10% glycerol, 1% SDS) were subjected to 12% SDS-PAGE and transferred to nitrocellulose membrane (Bio-Rad Laboratories Inc., Hercules, Calif., USA). The gel was then stained with Coomassie blue to document equal protein loading. The membrane was blocked with 3% dry milk and 0.1% Tween-20 (Amersham, Arlington Heights, Ill., USA) in PBS and incubated with rabbit anti-rat HO-1 polyclonal Ab (Sangstat Corp., San Francisco, Calif., USA). The filters were washed and then incubated with horseradish peroxidase donkey anti-rabbit Ab (Amersham Life Sciences, Arlington Heights, Ill., USA). Relative quantities of HO-1 protein were determined using a densitometer (Kodak Digital Science 1D Analysis Software, Rochester, N.Y., USA) and results were expressed in absorbance units (AU).

Assay [6] has as its system fatty livers from obese Zucker rats. The experiment in a line: Ex vivo steatotic rat liver cold ischemia model followed by reperfusion. The class given is in vivo. The following applies: for bile production / portal blood flow: 2-hour reperfusion after 6 hours cold ischemia; for bile production / portal blood flow / I/R-induced hepatocyte injury measured by sGOT release: compared with untreated controls; for I/R-induced hepatocyte injury measured by sGOT release: 2-hour reperfusion. As to the method:
Animals, metalloporphyrins, and adenovirus constructs are described in Example 3. Ex vivo cold ischemia model: Genetically obese Zucker rats underwent ether anesthesia and systemic heparinization. […] Control livers from untreated obese Zucker rats were stored for 6 hours at 4° C. in UW solution (n=6). There were 4 treatment groups. Group 1 animals received CoPP, the HO-1 inducer (5 mg/kg intraperitoneally) 24 hours before liver harvest (n=6). Group 2 rats were infused with Ad-HO-1 or Ad-β Gal (2.4×10^9 plaque-forming units (pfu) […]) 24 to 48 hours before the procurement (n=4–10). Group 3 donors were treated with Ad-HO-1 (2.4×10^9 pfu intravenously) at day-2, followed 1 day later by infusion of ZnPP (20 mg/kg intraperitoneally), the HO-1 inhibitor (n=4). Group 4 rats received ZnPP alone (20 mg/kg intraperitoneally) at 24 hours before harvest (n=4). All livers were procured at day 0, stored for 6 hours at 4° C. in UW solution, and then perfused on an isolated perfusion rat liver apparatus, as described. The Zucker livers were perfused ex vivo for 2 hours while temperature, pH, and inflow pressure were kept constant. Portal vein blood flow and pressure were recorded every 15 minutes, whereas bile output was monitored every 30 minutes. Portal vein blood flow was adjusted to maintain portal pressures of 13 to 18 cm H2O. Blood was collected at 30-minute intervals and serum glutamic-oxaloacetic trans-aminase (sGOT) levels were measured using an autoanalyzer from ANTECH Diagnostics (Irvine, Calif., USA). Following 2 hours of perfusion, a portion of the liver was snap-frozen for mRNA extraction and Western blot analysis of HO-1 expression; the remaining tissue samples were fixed in formalin for hematoxylin and eosin (H&E) staining.

For assay [7] the test system is unchanged. Kind of assay: Liver histology in the ex vivo cold ischemia model, Banff's criteria. Details: species or system rat. The following applies: after 2 hours perfusion; graded 1 to 4; untreated 3.0±0.63. From the text:
Histology and immunohistochemistry: Liver specimens were fixed in a 10% buffered formalin solution and embedded in paraffin. Sections were made at 4 μm and stained with H&E. The histologic severity of I/R injury in the ex vivo perfusion model was graded using International Banff Criteria. Using these criteria, lobular disarray and ballooning changes are graded from 1 to 4, where no change is given a score of 1 and severe disarray or ballooning changes is given a score of 4.

Assay [8] has as its system HO-1. The experiment in a line: Western analysis of HO-1 expression in the ex vivo I/R injury model. Details: species or system rat. The following applies: at completion of 2-hour perfusion period; densitometer; untreated 0.11 AU. Here is the method: as §1
Western blots were performed as described in Example 3.

Assay [9] has as its system HO-1. Kind of assay: Rat sandwich ELISA of HO-1 protein in liver. The following applies: 5 mg/kg intraperitoneally. In kind it is in vivo. Here is the method:
To test that stress-induced upregulation of HO-1 reduces I/R insult in steatotic rat livers, we have chosen 2 distinct HO-1-inducing approaches. First, donor rats were pretreated with CoPP (5 mg/kg intraperitoneally), a regimen that increases HO-1 protein levels in rat livers by 250% in a rat sandwich ELISA. Second, because infusion of CoPP in high doses may modulate other heme enzymes such as nitric oxide synthase (NOS) and guanylate cyclase, we have also used Ad-based gene delivery to provide “proof of principle” and to selectively upregulate HO-1 expression in prospective liver donors. Western blot analysis confirmed increased HO-1 protein expression in the ex vivo I/R model using Ad-HO-1-transduced rat steatotic livers.
In general terms: In an ELISA, binding on a coated surface is turned into a signal by an enzyme label.

The mark [10] stands for this setting: recipients treated i.p., Zn 10 mg/kg/day day -1 and days 1-9, Co 20 mg/kg/day days 0-5.

Each structure is given as a SMILES string. Entries after “also recorded” stand apart in the source; their conditions may differ.

As to `C=CC1=C(C)c2cc3[n-]c(cc4nc(cc5[n-]c(cc1n2)c(C)c5CCC(=O)[O-])C(CCC(=O)[O-])=C4C)c(C)c3C=C.[Co+2].[H+].[H+]` [CoPP, cobalt-protoporphyrin], in the assay with EL4 cells, the target cell lysis was determined as 0% and the “chromium release from target cells” value was “lower than the spontaneous release”. In addition, the “heart allograft survival (mean survival time)” value (“heart allograft survival” below) in assay [1] (setting [10]) is 10.5±0.6 days. The compound also gave a sGOT levels in assay [2] (day 1 post transplant, control 2695) of 1838 IU/L. In assay [2] (day 7 post transplant, control 1570), this compound displayed a sGOT levels of 477 IU/L. In addition, the sGOT levels in assay [2] (day 14 post transplant, control 460) worked out at 198 IU/L. In addition, in assay [2] (lean Zucker rats engrafted with livers from treated obese Zucker donors), the “recipients still alive at well over 100 days after transplant” value is given as 8 out of 10. This compound displayed a Suzuki score in the assay on liver isografts [3] of 1.33±0.70. The “intragraft T cells” value in the assay with liver isografts [4] (day 1, labeled cells counted in 10 high-power fields, control 9±3) is on record as 2±1. For the same compound, the intragraft monocytes/macrophages with liver isografts [4] (day 1, labeled cells counted in 10 high-power fields, control 136±31) stood at 71±12. Besides, the “hepatocyte architecture and MNC infiltrate of long-term liver grafts” value with liver isografts [4] (grafts harvested at day 100) was “good preservation of hepatocyte architecture and only mild MNC infiltrate”. Further, the HO-1 expression with HO-1 [5] is recorded as 1.21–2.14 AU. For the same compound, in [6], the bile production entry is listed as “significantly increased; also recorded: significantly higher”, the portal blood flow entry is on record as “significantly improved” and the “I/R-induced hepatocyte injury measured by sGOT release” value is recorded as “markedly reduced”. In addition, the sGOT concentrations in assay [6] (at 60 minutes of reperfusion, untreated controls 102±8.23) was determined as 53.3±8.23 IU/L. Besides, the “Banff's score” value in [7] is 1.21±0.39. Further, in the assay on HO-1 [8], the HO-1 expression is reported as 2.46 AU. For the same compound, the “increase of HO-1 protein levels in rat livers” value with HO-1 [9] was determined as 250%.
Turning to `C=CC1=C(C)c2cc3[n-]c(cc4nc(cc5[n-]c(cc1n2)c(C)c5C=C)C(C)=C4CCC(=O)O)c(CCC(=O)O)c3C.[Zn+2]` [ZnPP, Zinc-protoporphyrin], in the assay with EL4 cells, the target cell lysis is recorded as 0% and the “chromium release from target cells” value is “lower than the spontaneous release”. Also, the “heart allograft survival” value in [1] (heart donors pre-treated one day before transplantation (50 mg/kg)) amounted to 10.3±1.5 days. In addition, the “heart allograft survival” value in assay [1] (setting [10]) amounted to 12.0±2.4 days. For the same compound, in assay [6], the bile production entry was “diminished”, the portal blood flow entry was “diminished” and the “I/R-induced hepatocyte injury measured by sGOT release” value is recorded as “augmented hepatocyte injury comparable with otherwise untreated fatty controls”. Further, the “Banff's score” value in [7] is given as 2.86±0.12. Also, the HO-1 expression in the assay with HO-1 [8] was 0.12 AU.
